What was measured:
[1] = Antiproliferative activity against mouse BAF3 cells assessed as cell growth inhibition after 72 hrs by cell titer-glo assay; format: cell-based
[2] = Antiproliferative activity against CHO cells assessed as cell growth inhibition after 72 hrs by cell titer-glo assay; format: cell-based, Cricetulus griseus; conditions: chinese hamster
GIST882 = experiment: Antiproliferative activity against human GIST882 cells assessed as cell growth inhibition after 72 hrs by cell titer-glo assay; format: functional; conditions: GIST882, 72 h
[3] = Antiproliferative activity against human GIST48B cells assessed as cell growth inhibition after 72 hrs by cell titer-glo assay; format: functional
MEG-01 = experiment: Antiproliferative activity against human MEG01 cells assessed as cell growth inhibition after 72 hrs by cell titer-glo assay; format: functional; conditions: MEG-01, 72 h
[4] = target: Platelet-derived growth factor receptor beta (Homo sapiens, UniProt P09619); experiment: Inhibition of human His-tagged PDGFRbeta (558 to 1106 residues) expressed in baculovirus by ELISA
Sequence of Platelet-derived growth factor receptor beta (P09619 whole entry, the tested form may be a part): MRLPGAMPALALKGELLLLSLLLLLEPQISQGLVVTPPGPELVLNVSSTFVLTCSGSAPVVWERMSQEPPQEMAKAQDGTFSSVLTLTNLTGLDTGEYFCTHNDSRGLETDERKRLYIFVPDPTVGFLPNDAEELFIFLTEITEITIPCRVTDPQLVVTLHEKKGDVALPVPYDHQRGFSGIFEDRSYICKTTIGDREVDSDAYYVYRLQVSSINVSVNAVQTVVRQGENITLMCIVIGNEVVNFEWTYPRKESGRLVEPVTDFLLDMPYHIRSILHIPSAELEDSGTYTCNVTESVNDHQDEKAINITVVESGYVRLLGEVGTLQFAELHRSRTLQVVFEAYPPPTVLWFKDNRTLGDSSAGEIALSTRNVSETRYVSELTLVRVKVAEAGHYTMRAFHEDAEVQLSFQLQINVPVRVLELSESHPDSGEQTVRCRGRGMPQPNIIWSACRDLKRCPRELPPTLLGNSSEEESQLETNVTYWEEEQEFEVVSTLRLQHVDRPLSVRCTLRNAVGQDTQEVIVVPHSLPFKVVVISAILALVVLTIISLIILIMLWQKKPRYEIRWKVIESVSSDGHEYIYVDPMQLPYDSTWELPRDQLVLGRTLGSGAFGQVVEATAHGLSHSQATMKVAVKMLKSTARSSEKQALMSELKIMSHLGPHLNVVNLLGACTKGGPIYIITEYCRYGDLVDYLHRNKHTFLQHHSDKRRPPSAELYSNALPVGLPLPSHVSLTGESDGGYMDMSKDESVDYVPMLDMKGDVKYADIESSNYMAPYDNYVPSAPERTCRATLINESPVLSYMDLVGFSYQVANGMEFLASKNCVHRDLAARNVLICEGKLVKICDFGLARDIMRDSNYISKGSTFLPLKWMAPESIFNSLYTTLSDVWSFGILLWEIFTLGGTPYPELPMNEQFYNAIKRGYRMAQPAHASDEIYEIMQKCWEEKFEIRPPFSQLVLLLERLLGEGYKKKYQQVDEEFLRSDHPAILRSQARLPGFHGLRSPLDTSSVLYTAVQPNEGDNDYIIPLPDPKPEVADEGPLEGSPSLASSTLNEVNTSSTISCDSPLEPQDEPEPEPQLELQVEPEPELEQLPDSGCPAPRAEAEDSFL

[5] = target: Vascular endothelial growth factor receptor 1 (Homo sapiens, UniProt P17948); experiment: Inhibition of human GST-tagged FLT1 (781 to 1338 residues) expressed in baculovirus by ELISA
[6] = Apparent clearance in Sprague-Dawley rat at 2 mg/kg, iv up to 24 hrs post dose by LC/MS/MS analysis; format: ADME, organism-based; conditions: in vivo, read-out: CL(app) (converted)
[7] = MRT (0 to infinity) in Sprague-Dawley rat at 25 mg/kg, ip up to 24 hrs post dose by LC/MS/MS analysis; format: ADME, organism-based; conditions: in vivo
[8] = AUC (0 to infinity) in Sprague-Dawley rat at 100 mg/kg, ip up to 24 hrs post dose by LC/MS/MS analysis; format: ADME, organism-based; parameters: dose 100 mg/kg, time infinity, route intraperitoneal; conditions: in vivo
[9] = MRT (0 to t) in Sprague-Dawley rat at 100 mg/kg, ip up to 24 hrs post dose by LC/MS/MS analysis; format: ADME, organism-based; conditions: in vivo
[10] = MRT (0 to infinity) in Sprague-Dawley rat at 100 mg/kg, ip up to 24 hrs post dose by LC/MS/MS analysis; format: ADME, organism-based; conditions: in vivo
[11] = Tmax in Sprague-Dawley rat at 100 mg/kg, ip up to 24 hrs post dose by LC/MS/MS analysis; format: ADME, organism-based; conditions: in vivo
[12] = Cmax in Sprague-Dawley rat at 100 mg/kg, ip up to 24 hrs post dose by LC/MS/MS analysis; format: ADME, organism-based; parameters: dose 100 mg/kg, route intraperitoneal; conditions: in vivo
[13] = Half life in rat liver microsomes at 1 uM in presence of NADPH by LC-MS/MS; format: ADME, microsome
GISTT1 = experiment: Antitumor activity against human GISTT1 cells xenografted in nu/nu mouse assessed as tumor growth inhibition at 25 mg/kg, ip administered daily for 28 days relative to control; format: functional; conditions: 672 h, read-out: TGI
Mus musculus = experiment: Toxicity in nu/nu mouse xenografted with human GISTT1 cells assessed as body weight loss at 25 to 100 mg/kg, ip administered daily for 28 days measured during compound dosing; format: organism-based; conditions: in vivo, 672 h
[14] = target: Vascular endothelial growth factor receptor 2 (Homo sapiens, UniProt P35968)
Sequence of Vascular endothelial growth factor receptor 2 (P35968 whole entry): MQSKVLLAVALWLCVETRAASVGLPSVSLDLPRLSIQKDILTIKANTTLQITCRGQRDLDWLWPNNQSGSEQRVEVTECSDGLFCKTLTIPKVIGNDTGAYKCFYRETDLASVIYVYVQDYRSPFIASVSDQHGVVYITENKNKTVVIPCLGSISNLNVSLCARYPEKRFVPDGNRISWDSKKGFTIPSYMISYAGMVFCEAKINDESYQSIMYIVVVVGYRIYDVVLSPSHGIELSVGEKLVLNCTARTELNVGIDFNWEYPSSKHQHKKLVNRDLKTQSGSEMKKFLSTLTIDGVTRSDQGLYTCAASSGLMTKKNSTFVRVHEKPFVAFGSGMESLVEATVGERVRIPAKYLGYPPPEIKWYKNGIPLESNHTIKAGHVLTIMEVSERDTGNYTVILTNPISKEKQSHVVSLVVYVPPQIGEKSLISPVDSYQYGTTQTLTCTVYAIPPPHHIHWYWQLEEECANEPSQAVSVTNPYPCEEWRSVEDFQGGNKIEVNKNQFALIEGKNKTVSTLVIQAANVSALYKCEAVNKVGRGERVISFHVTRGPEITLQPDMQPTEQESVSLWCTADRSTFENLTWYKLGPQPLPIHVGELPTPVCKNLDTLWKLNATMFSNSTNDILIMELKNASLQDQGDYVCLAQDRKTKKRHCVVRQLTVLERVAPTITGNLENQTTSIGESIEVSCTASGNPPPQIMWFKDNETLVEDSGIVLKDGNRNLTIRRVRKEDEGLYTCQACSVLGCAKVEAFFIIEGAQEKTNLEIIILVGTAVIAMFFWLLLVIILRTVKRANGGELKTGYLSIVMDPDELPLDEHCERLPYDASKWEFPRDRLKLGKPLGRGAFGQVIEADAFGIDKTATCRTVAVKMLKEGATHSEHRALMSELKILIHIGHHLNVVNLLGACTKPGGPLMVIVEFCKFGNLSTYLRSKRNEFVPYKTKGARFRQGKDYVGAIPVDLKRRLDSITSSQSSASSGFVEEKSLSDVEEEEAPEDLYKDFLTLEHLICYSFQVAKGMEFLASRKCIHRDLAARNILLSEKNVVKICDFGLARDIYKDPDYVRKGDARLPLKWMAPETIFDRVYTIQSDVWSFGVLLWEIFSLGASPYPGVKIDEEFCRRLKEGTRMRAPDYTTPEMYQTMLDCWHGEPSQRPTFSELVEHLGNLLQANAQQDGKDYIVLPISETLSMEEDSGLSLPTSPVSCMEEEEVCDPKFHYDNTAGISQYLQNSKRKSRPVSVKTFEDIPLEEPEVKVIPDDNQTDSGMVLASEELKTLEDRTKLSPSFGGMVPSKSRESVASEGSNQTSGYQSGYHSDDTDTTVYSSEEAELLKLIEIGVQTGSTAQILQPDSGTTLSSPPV
Description: Inhibition of VEGFR2 (unknown origin) using FAM-labeled peptide as substrate preincubated for 10 mins followed by substrate addition in presence of ATP by mobility shift assay

[15] = target: T1, Mast/stem cell growth factor receptor Kit (Homo sapiens, UniProt P10721)
T1 sequence (P10721 whole entry): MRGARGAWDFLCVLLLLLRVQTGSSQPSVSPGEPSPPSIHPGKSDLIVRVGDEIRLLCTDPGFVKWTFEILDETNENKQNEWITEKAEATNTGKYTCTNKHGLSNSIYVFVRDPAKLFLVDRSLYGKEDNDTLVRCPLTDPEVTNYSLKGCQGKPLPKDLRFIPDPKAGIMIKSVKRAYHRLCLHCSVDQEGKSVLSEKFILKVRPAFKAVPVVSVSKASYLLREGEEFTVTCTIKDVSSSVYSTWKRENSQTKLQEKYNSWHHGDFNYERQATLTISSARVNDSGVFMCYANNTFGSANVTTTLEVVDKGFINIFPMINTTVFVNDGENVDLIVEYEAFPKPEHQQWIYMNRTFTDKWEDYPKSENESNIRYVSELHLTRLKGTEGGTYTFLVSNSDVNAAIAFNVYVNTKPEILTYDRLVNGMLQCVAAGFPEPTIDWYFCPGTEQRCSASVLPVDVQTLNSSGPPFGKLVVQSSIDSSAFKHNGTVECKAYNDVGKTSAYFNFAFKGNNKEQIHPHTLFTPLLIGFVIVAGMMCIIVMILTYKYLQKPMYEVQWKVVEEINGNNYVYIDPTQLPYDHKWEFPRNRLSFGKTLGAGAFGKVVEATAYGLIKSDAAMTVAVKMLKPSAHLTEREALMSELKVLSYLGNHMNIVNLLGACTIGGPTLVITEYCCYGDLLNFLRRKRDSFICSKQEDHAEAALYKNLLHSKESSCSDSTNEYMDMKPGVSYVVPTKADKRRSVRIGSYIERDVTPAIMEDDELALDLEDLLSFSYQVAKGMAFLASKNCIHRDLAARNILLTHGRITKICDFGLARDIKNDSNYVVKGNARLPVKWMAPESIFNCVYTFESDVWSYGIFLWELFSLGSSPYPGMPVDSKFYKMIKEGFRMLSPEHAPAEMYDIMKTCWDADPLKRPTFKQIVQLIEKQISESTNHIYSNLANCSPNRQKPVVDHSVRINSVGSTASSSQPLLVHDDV
Description: Inhibition of cKIT (unknown origin) using FAM-labeled peptide as substrate preincubated for 10 mins followed by substrate addition in presence of ATP by mobility shift assay

[16] = system: Mast/stem cell growth factor receptor Kit (Homo sapiens), P10721 [C674S]
Sequence of Mast/stem cell growth factor receptor Kit (Homo sapiens), P10721 [C674S] (P10721 whole entry C674S): as the sequence (P10721 whole entry) above, with C674S counted along it
Description: Inhibition of TEL-fused cKIT C674S mutant (unknown origin) expressed in mouse BAF3 cells assessed as cell growth inhibition after 72 hrs by cell titer-glo assay

[17] = target: T1, Mast/stem cell growth factor receptor Kit; remark: listed apart in the source
Description: Inhibition of TEL-fused cKIT (unknown origin) expressed in mouse BAF3 cells assessed as cell growth inhibition after 72 hrs by cell titer-glo assay

[18] = target: Platelet-derived growth factor receptor alpha (Homo sapiens, UniProt P16234)
Sequence of Platelet-derived growth factor receptor alpha (P16234 whole entry): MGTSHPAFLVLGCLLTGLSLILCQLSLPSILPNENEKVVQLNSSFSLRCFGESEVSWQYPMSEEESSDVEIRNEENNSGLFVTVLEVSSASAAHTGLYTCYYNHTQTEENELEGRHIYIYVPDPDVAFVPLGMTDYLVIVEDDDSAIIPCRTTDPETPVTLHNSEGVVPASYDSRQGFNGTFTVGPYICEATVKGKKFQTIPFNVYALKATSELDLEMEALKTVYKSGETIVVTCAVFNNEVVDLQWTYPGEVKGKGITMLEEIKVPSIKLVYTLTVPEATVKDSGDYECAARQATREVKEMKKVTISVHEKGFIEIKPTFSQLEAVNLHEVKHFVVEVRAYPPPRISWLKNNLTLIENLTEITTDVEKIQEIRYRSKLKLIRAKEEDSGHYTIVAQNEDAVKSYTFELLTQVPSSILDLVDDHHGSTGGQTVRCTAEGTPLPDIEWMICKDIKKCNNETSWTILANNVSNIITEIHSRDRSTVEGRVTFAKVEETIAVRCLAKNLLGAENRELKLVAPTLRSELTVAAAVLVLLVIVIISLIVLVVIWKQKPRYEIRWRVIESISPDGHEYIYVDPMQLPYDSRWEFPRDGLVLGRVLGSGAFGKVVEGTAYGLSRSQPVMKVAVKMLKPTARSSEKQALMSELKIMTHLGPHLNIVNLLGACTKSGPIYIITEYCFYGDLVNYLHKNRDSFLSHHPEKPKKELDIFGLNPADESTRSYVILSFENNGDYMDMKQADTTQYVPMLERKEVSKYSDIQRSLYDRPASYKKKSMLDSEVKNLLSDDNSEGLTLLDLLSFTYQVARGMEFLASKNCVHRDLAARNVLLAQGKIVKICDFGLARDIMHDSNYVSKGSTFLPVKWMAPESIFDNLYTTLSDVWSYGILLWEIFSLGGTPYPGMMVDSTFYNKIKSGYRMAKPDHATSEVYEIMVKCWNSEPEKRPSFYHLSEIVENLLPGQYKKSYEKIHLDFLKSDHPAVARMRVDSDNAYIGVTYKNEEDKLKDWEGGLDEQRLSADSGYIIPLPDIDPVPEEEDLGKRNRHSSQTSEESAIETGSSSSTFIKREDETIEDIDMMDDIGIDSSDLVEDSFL
Description: Inhibition of TEL-fused PDGFRalpha (unknown origin) expressed in mouse BAF3 cells assessed as cell growth inhibition after 72 hrs by cell titer-glo assay

[19] = system: Mast/stem cell growth factor receptor Kit (Homo sapiens), P10721 [L576P]
Sequence of Mast/stem cell growth factor receptor Kit (Homo sapiens), P10721 [L576P] (P10721 whole entry L576P): as the sequence (P10721 whole entry) above, with L576P counted along it
Description: Inhibition of TEL-fused cKIT L576P mutant (unknown origin) expressed in mouse BAF3 cells assessed as cell growth inhibition after 72 hrs by cell titer-glo assay

[20] = system: Mast/stem cell growth factor receptor Kit (Homo sapiens), P10721 [V654A]
Sequence of Mast/stem cell growth factor receptor Kit (Homo sapiens), P10721 [V654A] (P10721 whole entry V654A): as the sequence (P10721 whole entry) above, with V654A counted along it
Description: Inhibition of TEL-fused cKIT V654A mutant (unknown origin) expressed in mouse BAF3 cells assessed as cell growth inhibition after 72 hrs by cell titer-glo assay

[21] = system: Mast/stem cell growth factor receptor Kit (Homo sapiens), P10721 [V559D,V654A]
Sequence of Mast/stem cell growth factor receptor Kit (Homo sapiens), P10721 [V559D,V654A] (P10721 whole entry V559D/V654A): as the sequence (P10721 whole entry) above, with V559D, V654A counted along it

[22] = system: Mast/stem cell growth factor receptor Kit (Homo sapiens), P10721 [A829P]
Sequence of Mast/stem cell growth factor receptor Kit (Homo sapiens), P10721 [A829P] (P10721 whole entry A829P): as the sequence (P10721 whole entry) above, with A829P counted along it
Description: Inhibition of TEL-fused cKIT A829P mutant (unknown origin) expressed in mouse BAF3 cells assessed as cell growth inhibition after 72 hrs by cell titer-glo assay

Cc1cc(NC(=O)Nc2ccc(-c3ccnc4[nH]nc(C)c34)cc2)ccc1N1CCOCC1
GI50 at 72 h [1]: 4.03 µM | GI50 at 72 h [2]: > 10 µM | GI50 (GIST882): < 0.003 µM | GI50 [3]: > 10 µM | GI50 (MEG-01): 9.09 µM | IC50 [4]: < 0.001 µM | IC50 [5]: 0.159 µM | clearance [6]: 15.8 mL/min/kg | MRT inf [7]: 6.48 h | AUC(0-inf) [8]: 5390 ng·h/mL | MRT last at 24 h [9]: 7.99 h | MRT inf [10]: 14.8 h | Tmax [11]: 4 h | Cmax [12]: 656 ng/mL | half-life at 1 µM [13]: 0.779 h | inhibition in vivo at 25 mg/kg (GISTT1): 20.2% | Activity (Mus musculus): Non-Toxic | IC50 [14]: 2.28 µM | IC50 [15]: 0.0024 µM | GI50 [16]: 0.0105 µM | GI50 [17]: 0.0181 µM | GI50 [18]: 0.0104 µM | GI50 [19]: 0.0106 µM | GI50 [20]: 0.137 µM | GI50 [21]: 0.33 µM | GI50 [22]: 0.0116 µM

Reference: ChEMBL document CHEMBL4011618, “Discovery of Potent, Selective Stem Cell Factor Receptor/Platelet Derived Growth Factor Receptor Alpha (c-KIT/PDGFRα) Dual Inhibitor for the Treatment of Imatinib-Resistant Gastrointestinal Stromal Tumors (GISTs)” (J Med Chem, 2017)
